Assay results taken from ChEMBL document CHEMBL1144021, “Molecular determinants of the anticonvulsant felbamate binding site in the N-methyl-D-aspartate receptor” (J Med Chem, 2008).
The source made the active and inactive calls. No cut-off for these calls is given here.

Tests used:
[1] = tested on: Glutamate receptor ionotropic, NMDA 2B (Homo sapiens), Q13224 [E236A]; experiment: Inhibition of NR2B receptor ATD E236A mutant expressed in Xenopus oocytes assessed as NMDA current at 0.5 mM relative to control; type: cell-based; details: Oocyte
[2] = tested on: Glutamate receptor ionotropic, NMDA 2B (Homo sapiens), Q13224 [S645A]; experiment: Inhibition of NR2B receptor M3c S645A mutant expressed in Xenopus oocytes assessed as NMDA current at 0.5 mM relative to control; type: cell-based; details: Oocyte
[3] = tested on: Glutamate receptor ionotropic, NMDA 2B (Homo sapiens), Q13224 [A652T]; experiment: Binding affinity to NR2B receptor M3c A652T mutant
Chain of Glutamate receptor ionotropic, NMDA 2B (Homo sapiens), Q13224 [A652T] (Q13224 whole entry A652T): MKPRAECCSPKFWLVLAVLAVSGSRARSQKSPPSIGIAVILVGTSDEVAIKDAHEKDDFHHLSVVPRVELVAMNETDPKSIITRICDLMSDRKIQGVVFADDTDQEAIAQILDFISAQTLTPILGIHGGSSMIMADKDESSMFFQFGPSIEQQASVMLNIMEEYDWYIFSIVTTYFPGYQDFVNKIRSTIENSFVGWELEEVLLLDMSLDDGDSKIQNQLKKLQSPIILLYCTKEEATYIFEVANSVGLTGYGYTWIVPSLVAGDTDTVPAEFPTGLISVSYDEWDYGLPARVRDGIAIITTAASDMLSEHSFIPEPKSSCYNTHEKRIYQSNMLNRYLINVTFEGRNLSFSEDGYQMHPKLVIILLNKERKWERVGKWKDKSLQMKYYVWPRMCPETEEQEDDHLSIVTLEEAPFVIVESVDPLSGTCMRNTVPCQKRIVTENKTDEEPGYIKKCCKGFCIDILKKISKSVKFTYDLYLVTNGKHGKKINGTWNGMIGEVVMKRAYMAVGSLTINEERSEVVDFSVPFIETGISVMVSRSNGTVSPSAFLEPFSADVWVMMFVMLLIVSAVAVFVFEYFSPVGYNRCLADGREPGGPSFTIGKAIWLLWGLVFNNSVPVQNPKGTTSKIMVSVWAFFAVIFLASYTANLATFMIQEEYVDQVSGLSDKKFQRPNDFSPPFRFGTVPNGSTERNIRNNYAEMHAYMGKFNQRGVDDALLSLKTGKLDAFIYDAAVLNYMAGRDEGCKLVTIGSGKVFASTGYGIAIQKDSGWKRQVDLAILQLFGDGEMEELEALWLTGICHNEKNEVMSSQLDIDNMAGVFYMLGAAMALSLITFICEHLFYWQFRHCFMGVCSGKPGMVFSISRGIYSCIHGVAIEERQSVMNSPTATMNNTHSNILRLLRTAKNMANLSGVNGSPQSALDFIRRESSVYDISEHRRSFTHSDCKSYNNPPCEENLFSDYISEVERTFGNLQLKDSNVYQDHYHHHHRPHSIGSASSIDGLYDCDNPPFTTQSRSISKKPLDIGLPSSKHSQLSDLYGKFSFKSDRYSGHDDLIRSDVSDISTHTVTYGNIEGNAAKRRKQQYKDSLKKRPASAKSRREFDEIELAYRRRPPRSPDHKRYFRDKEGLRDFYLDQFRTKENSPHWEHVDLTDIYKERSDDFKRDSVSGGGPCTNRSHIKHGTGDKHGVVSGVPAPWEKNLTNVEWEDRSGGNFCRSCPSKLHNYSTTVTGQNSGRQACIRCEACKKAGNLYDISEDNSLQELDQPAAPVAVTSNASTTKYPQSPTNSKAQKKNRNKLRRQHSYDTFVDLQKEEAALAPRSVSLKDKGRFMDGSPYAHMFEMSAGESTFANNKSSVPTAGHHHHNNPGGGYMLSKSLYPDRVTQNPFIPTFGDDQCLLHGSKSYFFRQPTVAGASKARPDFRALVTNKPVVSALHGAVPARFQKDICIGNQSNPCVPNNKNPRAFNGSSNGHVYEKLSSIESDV

[4] = tested on: Glutamate receptor ionotropic, NMDA 2B (Homo sapiens), Q13224 [D104A]; experiment: Inhibition of NR2B receptor ATD D104A mutant expressed in Xenopus oocytes assessed as NMDA current at 0.5 mM relative to control; type: cell-based; details: Oocyte
[5] = tested on: Glutamate receptor ionotropic, NMDA 2B (Homo sapiens), Q13224 [F554A]; experiment: Inhibition of NR2B receptor Pre-M1 F554A mutant expressed in Xenopus oocytes assessed as NMDA current at 0.5 mM relative to control; type: cell-based; details: Oocyte
[6] = tested on: Glutamate receptor ionotropic, NMDA 2B (Homo sapiens), Q13224 [S555A]; experiment: Inhibition of NR2B receptor Pre-M1 S555A mutant expressed in Xenopus oocytes assessed as NMDA current at 0.5 mM relative to control; type: cell-based; details: Oocyte
[7] = tested on: Glutamate receptor ionotropic, NMDA 2B (Homo sapiens), Q13224 [V640A]; experiment: Inhibition of NR2B receptor M3c V640A mutant expressed in Xenopus oocytes assessed as NMDA current at 0.5 mM relative to control; type: cell-based; details: Oocyte
[8] = tested on: Glutamate receptor ionotropic, NMDA 2B (Homo sapiens), Q13224 [A648C]; experiment: Inhibition of NR2B receptor M3c A648C mutant expressed in Xenopus oocytes assessed as NMDA current at 0.5 mM relative to control; type: cell-based; details: Oocyte
Chain of Glutamate receptor ionotropic, NMDA 2B (Homo sapiens), Q13224 [A648C] (Q13224 whole entry A648C): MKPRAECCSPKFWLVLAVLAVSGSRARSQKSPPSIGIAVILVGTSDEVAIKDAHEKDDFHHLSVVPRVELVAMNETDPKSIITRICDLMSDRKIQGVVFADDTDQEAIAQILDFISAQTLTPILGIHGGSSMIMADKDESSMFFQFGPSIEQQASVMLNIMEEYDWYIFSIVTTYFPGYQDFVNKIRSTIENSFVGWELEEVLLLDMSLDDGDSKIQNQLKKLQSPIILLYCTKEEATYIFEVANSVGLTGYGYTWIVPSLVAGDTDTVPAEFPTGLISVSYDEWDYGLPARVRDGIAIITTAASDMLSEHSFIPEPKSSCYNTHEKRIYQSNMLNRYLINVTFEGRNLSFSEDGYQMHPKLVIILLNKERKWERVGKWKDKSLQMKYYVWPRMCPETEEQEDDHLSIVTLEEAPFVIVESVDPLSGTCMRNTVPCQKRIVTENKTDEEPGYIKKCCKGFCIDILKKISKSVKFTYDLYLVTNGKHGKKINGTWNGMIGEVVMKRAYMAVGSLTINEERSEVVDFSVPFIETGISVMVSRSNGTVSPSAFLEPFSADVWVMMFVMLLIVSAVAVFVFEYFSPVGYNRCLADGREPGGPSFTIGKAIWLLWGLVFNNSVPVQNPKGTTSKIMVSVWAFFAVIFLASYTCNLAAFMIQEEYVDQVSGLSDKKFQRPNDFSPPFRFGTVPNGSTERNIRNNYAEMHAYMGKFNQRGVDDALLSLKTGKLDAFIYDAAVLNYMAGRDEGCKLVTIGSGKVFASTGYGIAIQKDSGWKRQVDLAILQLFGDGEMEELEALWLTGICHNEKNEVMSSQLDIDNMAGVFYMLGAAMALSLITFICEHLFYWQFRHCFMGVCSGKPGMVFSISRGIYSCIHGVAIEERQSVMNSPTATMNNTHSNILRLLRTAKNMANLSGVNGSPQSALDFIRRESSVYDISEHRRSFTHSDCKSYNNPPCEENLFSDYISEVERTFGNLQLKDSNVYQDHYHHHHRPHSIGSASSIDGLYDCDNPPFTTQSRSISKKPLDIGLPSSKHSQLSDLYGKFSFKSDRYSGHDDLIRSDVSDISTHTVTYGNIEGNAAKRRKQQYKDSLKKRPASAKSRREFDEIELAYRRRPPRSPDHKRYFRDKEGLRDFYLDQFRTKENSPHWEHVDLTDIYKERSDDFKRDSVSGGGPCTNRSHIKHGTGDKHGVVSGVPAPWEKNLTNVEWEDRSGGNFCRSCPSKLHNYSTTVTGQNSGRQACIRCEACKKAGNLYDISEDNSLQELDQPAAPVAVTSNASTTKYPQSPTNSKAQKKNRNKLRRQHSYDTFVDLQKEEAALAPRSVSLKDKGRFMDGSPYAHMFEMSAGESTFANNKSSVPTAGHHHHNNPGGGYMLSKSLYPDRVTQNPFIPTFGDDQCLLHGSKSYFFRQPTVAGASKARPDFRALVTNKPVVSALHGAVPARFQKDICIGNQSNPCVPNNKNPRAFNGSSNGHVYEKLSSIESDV

[9] = tested on: Glutamate receptor ionotropic, NMDA 2B (Homo sapiens), Q13224 [A652T]; experiment: Inhibition of NR2B receptor M3c A652T mutant expressed in Xenopus oocytes assessed as NMDA current at 0.5 mM relative to control; type: cell-based; details: Oocyte
[10] = tested on: Glutamate receptor ionotropic, NMDA 2B (Homo sapiens), Q13224 [I655A]; experiment: Inhibition of NR2B receptor post-M3 I655A mutant expressed in Xenopus oocytes assessed as NMDA current at 0.5 mM relative to control; type: cell-based; details: Oocyte
Chain of Glutamate receptor ionotropic, NMDA 2B (Homo sapiens), Q13224 [I655A] (Q13224 whole entry I655A): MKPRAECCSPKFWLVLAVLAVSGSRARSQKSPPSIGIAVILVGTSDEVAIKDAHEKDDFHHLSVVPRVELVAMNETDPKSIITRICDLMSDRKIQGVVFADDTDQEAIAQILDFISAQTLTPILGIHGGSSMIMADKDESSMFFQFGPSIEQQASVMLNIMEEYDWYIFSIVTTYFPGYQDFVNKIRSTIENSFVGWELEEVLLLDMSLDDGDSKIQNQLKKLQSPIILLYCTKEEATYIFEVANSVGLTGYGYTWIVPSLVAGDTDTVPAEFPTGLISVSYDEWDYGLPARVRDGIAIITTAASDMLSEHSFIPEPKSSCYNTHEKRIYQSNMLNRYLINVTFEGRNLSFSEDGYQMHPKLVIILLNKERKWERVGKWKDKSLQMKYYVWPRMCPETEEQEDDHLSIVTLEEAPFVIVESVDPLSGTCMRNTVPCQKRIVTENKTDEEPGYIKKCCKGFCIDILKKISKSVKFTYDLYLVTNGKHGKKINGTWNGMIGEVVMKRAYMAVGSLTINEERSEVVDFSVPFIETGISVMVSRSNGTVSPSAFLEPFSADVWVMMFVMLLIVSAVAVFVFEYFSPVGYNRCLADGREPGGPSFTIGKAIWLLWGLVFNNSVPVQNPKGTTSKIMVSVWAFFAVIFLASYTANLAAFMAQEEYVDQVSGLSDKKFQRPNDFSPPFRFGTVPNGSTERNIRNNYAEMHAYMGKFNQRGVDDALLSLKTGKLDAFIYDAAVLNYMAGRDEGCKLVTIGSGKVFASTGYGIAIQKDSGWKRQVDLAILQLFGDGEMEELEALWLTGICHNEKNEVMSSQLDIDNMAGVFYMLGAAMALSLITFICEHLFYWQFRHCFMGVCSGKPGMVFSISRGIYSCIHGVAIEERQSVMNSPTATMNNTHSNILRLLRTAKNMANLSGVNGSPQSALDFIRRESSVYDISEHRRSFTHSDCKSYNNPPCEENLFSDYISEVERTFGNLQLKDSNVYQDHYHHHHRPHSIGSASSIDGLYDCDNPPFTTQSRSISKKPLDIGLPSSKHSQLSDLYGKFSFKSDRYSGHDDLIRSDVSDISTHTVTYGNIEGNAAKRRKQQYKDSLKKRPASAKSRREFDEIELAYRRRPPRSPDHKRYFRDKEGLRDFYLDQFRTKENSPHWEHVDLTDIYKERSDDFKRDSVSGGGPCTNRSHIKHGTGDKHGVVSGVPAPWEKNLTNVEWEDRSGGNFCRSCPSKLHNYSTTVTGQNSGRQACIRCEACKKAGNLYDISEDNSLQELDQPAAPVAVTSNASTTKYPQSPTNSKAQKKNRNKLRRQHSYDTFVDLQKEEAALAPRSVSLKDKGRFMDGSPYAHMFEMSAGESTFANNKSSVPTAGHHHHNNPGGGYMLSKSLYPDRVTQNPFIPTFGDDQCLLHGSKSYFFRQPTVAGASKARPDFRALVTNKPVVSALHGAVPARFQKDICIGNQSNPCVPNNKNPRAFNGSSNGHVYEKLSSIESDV

[11] = tested on: Glutamate receptor ionotropic, NMDA 2B (Homo sapiens), Q13224 [E658A]; experiment: Inhibition of NR2B receptor post-M3 E658A mutant expressed in Xenopus oocytes assessed as NMDA current at 0.5 mM relative to control; type: cell-based; details: Oocyte
[12] = biological target: Glutamate receptor ionotropic, NMDA 2B (Homo sapiens) (UniProt Q13224); experiment: Binding affinity to NR2B receptor
[13] = Ratio of Kapp for wild type NR2B receptor to Kapp for NR2B receptor L643A/K234A mutant
[14] = Ratio of Kapp for wild type NR2B receptor to Kapp for NR2B receptor T647A/T103A mutant
[15] = tested on: Glutamate receptor ionotropic, NMDA 2B (Homo sapiens), Q13224 [T103A,K234A]; experiment: Binding affinity to NR2B receptor T103A/K234A mutant
[16] = Ratio of Kapp for wild type NR2B receptor to Kapp for NR2B receptor ATD E236A mutant

NC(=O)OCC(COC(N)=O)c1ccccc1
inhibition [1]: 83% | inhibition [2]: 85% | Kapp [3]: 2.92 mM | inhibition [4]: 75% | Activity [5]: inactive | inhibition [6]: 72% | inhibition [7]: 71% | inhibition [8]: 73% | inhibition [9]: 83% | inhibition [10]: 76% | inhibition [11]: 65% | Kapp [12]: 0.87 mM | Ratio Ki(app) [13]: 7.3 | Ratio Ki(app) [14]: 7.7 | Kapp [15]: 4.14 mM | Ratio Ki(app) [16]: 2.5
